Results: ChEMBL document CHEMBL1140531, “New functional assay of P-glycoprotein activity using Hoechst 33342” (Bioorg Med Chem, 2007)

What was measured:
[1] = Cytotoxicity against human A2780/ADR cells after 72 hrs by MTT assay; type: functional, cell-based
A2780 = test: Cytotoxicity against human A2780 cells after 72 hrs by MTT assay; type: functional, cell-based; settings: A2780, 72 h
[2] = target: T1, ATP-dependent translocase ABCB1 (Homo sapiens, UniProt P08183); test: Inhibition of P-glycoprotein expressed in MDCK-MDR1 cells by calcein AM assay; type: cell-based
T1 sequence (P08183 whole entry): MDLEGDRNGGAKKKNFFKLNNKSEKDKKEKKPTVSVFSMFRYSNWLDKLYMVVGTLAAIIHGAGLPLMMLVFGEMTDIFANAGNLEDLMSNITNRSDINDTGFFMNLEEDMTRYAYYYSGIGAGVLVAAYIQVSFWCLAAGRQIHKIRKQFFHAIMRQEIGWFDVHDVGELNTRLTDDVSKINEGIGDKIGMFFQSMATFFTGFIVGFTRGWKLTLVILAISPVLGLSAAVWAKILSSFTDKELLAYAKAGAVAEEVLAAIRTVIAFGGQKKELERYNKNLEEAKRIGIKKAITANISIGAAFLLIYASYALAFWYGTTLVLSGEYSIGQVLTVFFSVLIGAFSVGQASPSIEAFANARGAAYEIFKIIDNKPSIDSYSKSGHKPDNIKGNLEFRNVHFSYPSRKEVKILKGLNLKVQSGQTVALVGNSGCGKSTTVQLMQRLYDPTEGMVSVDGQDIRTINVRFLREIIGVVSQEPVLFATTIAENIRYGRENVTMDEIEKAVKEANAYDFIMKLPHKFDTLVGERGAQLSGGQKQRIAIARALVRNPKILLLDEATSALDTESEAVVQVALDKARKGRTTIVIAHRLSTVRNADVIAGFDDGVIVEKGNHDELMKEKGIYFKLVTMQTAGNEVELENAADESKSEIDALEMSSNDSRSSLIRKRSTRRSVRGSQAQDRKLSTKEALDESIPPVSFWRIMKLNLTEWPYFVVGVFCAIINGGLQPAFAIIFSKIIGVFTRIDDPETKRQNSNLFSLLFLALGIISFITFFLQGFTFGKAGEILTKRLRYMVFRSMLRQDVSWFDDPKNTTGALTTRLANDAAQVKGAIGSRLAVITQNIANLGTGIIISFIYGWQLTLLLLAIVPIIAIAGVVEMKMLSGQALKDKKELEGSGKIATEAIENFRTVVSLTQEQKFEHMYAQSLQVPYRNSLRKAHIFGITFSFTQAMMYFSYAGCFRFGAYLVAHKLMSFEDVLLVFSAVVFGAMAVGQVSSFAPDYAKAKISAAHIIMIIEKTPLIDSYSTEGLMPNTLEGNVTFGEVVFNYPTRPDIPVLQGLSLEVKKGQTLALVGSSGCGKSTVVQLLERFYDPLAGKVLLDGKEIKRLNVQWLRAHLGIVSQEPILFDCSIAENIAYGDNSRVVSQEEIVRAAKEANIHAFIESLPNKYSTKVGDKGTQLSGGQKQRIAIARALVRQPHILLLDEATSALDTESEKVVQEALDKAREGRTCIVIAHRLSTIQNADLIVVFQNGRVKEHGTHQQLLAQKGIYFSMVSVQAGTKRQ

[3] = target: T1, ATP-dependent translocase ABCB1; test: Inhibition of P-glycoprotein expressed in A2780/ADR cells by calcein AM assay; type: cell-based
[4] = target: T1, ATP-dependent translocase ABCB1; test: Inhibition of P-glycoprotein by Hoechst assay

Hill coefficient [2]	IC50 [3]	IC50 [4]	SMILES	IC50 [1]	IC50 (A2780)
			COc1cc2c(c(OC)c1OC)-c1ccc(OC)c(=O)cc1[C@@H](NC(C)=O)CC2 [COLCHICINE]	372 nM	22.9 nM
1.15			COc1ccc([C@@H]2Sc3ccccc3N(CCN(C)C)C(=O)[C@@H]2OC(C)=O)cc1 [DILTIAZEM]		
			COc1cccc2c1C(=O)c1c(O)c3c(c(O)c1C2=O)C[C@@](O)(C(C)=O)C[C@@H]3O[C@H]1C[C@H](N)[C@H](O)[C@H](C)O1 [DAUNORUBICIN]	18600 nM	117 nM
			CCOc1ccc(-c2nc3cc(-c4nc5cc(N6CCN(C)CC6)ccc5[nH]4)ccc3[nH]2)cc1	38000 nM	1910 nM
2.6	813 nM		O=C(Nc1ccc(CCN2CCc3ccccc3C2)cc1)Nc1ccccc1NC(=O)c1cnc2ccccc2c1		
			COC(=O)c1ccccc1-c1c2ccc(=N)cc-2oc2cc(N)ccc12 [RHODAMINE123]	123000 nM	1910 nM
			COc1cccc2c1C(=O)c1c(O)c3c(c(O)c1C2=O)C[C@@](O)(C(=O)CO)C[C@@H]3O[C@H]1C[C@H](N)[C@H](O)[C@H](C)O1 [DOXORUBICIN]	13500 nM	93.3 nM
2.06			CC[C@]1(O)C[C@@H]2CN(CCc3c([nH]c4ccccc34)[C@@](C(=O)OC)(c3cc4c(cc3OC)N(C)[C@H]3[C@@](O)(C(=O)OC)[C@H](OC(C)=O)[C@]5(CC)C=CCN6CC[C@]43[C@@H]65)C2)C1 [VINBLASTINE]	2820 nM	61.7 nM
2.89	339 nM	331 nM	COc1ccc(C(=O)Nc2ccccc2C(=O)Nc2ccc(CCN3CCc4cc(OC)c(OC)cc4C3)cc2)cc1OC		
2.42	490 nM	355 nM	O=C(Nc1ccccc1C(=O)Nc1ccc(CCN2CCc3ccccc3C2)cc1)c1cnc2ccccc2c1		
2.44			COC(=O)C1=C(C)NC(C)=C(C(=O)OCCN(C)Cc2ccccc2)C1c1cccc([N+](=O)[O-])c1 (stereo not drawn) [NICARDIPINE]		
1.88	3240 nM	3020 nM	COC(=O)[C@H]1[C@H]2C[C@@H]3c4[nH]c5cc(OC)ccc5c4CCN3C[C@H]2C[C@@H](OC(=O)c2cc(OC)c(OC)c(OC)c2)[C@@H]1OC [RESERPINE]		
2.01	851 nM	513 nM	COc1cc2c(cc1OC)CN(CCc1ccc(NC(=O)c3ccccc3NC(=O)c3ccccc3)cc1)CC2		
1.18			Cc1ccc(NC(=O)c2ccc(CN3CCN(C)CC3)cc2)cc1Nc1nccc(-c2cccnc2)n1 [IMATINIB]		
			CC(=O)O[C@@]12CO[C@@H]1C[C@H](O)[C@@]1(C)C(=O)[C@H](O)C3=C(C)[C@@H](OC(=O)[C@H](O)[C@@H](NC(=O)OC(C)(C)C)c4ccccc4)C[C@@](O)([C@@H](OC(=O)c4ccccc4)[C@H]21)C3(C)C [DOCETAXEL]	87.1 nM	4.9 nM

SMILES	Hill coefficient [2]	IC50 [3]	IC50 [4]	IC50 [1]	IC50 (A2780)
CC(=O)[C@H]1CC[C@H]2[C@@H]3CCC4=CC(=O)CC[C@]4(C)[C@H]3CC[C@]12C [PROGESTERONE]	1.31				
